Results reported in patent US20250051277A1, “DELIVERY OF THERAPEUTIC ALKALOID COMPOUNDS” (Sensorium Therapeutics, Inc., priority 2021, published 2025).
Like-named read-outs stand apart in the source and are kept apart here.

Assays:
[1] = assay type: physicochemical; details: SGF with pepsin, pH 1.5, 37° C., 0.5 mM
[2] = assay type: physicochemical; details: DI water, 25° C., 0.5 mM

| SMILES | Condition 1 Conversion (%) ([1]; time 1 min) | Condition 1 Conversion (%) ([1]; time 5 min) | Condition 1 Conversion (%) ([1]; time 30 min) | Condition 1 Conversion (%) ([1]; time 1 h) | Condition 2 Conversion (%) ([2]; time 1 min) | Condition 2 Conversion (%) ([2]; time 5 min) | Condition 2 Conversion (%) ([2]; time 30 min) | Condition 2 Conversion (%) ([2]; time 1 h) | Condition 1 Conversion (%) ([1]; time 4 h) | Condition 1 Conversion (%) ([1]; time 24 h) | Condition 2 Conversion (%) ([2]; time 4 h) | Condition 2 Conversion (%) ([2]; time 24 h) |
| --- | --- | --- | --- | --- | --- | --- | --- | --- | --- | --- | --- | --- |
| COc1ccc([C@@]23CC/C(=N/NC(=O)Nc4ccccc4Cl)C[C@@H]2N(C)CC3)cc1OC [Compound 270, 1-[(Z)-[(3aS,7aS)-3a-(3,4-dimethoxyphenyl)-1-methyl-2,3,4,5,7,7a-hexahydroindol-6-ylidene]amino]-3-(2-chlorophenyl)urea] | 0 | 0 | 1 | 1 | 0 | 0 | 0 | 0 |  |  |  |  |
| COc1ccc([C@@]23CCC(=NNC(=O)C45CC6CC(CC(C6)C4)C5)C[C@@H]2N(C)CC3)cc1OC [Compound 271, N-[[(3aS,7aS)-3a-(3,4-dimethoxyphenyl)-1-methyl-2,3,4,5,7,7a-hexahydroindol-6-ylidene]amino]adamantane-1-carboxamide] | 100 | 100 | 100 | 100 | 78.3 | 70.3 | 82 | 85.7 | 100 | 100 | 94.5 | 100 |
| COc1ccc([C@@]23CC/C(=N/OC45CC6CC(CC(C6)C4)C5)C[C@@H]2N(C)CC3)cc1OC [Compound 274, (Z,3aS,7aS)-N-(1-adamantyloxy)-3a-(3,4-dimethoxyphenyl)-1-methyl-2,3,4,5,7,7a-hexahydroindol-6-imine] | 0 | 0 | 0 | 0 | 0 | 0 | 0 | 0 | 35.5 | 39.91 | 0 | 0 |
| COc1ccc([C@@]23CCC(=NOCCC45CC6CC(CC(C6)C4)C5)C[C@@H]2N(C)CC3)cc1OC [Compound 276, (3aS,7aS)-N-[2-(1-adamantyl)ethoxy]-3a-(3,4-dimethoxyphenyl)-1-methyl-2,3,4,5,7,7a-hexahydroindol-6-imine] | 0 | 0 | 0 | 2.77 | 0 | 0 | 0 | 0 | 5.48 | 5.5 | 0 | 0 |
| COc1ccc([C@@]23CCC(=NNC(=O)Nc4cccnc4)C[C@@H]2N(C)CC3)cc1OC [Compound 299, 1-[[(3aS,7aS)-3a-(3,4-dimethoxyphenyl)-1-methyl-2,3,4,5,7,7a-hexahydroindol-6-ylidene]amino]-3-(3-pyridyl)urea] | 53 | 100 | 100 | 100 | 0 | 0 | 0 | 0 | 100 | 100 | 8 | 13 |
| COc1ccc([C@@]23CC/C(=N/OC45CC6CC(CC(C6)C4)C5)C[C@@H]2N(C)CC3)cc1OC [Compound 301, (Z,3aS,7aS)-N-(1-adamantyloxy)-3a-(3,4-dimethoxyphenyl)-1-methyl-2,3,4,5,7,7a-hexahydroindol-6-imine] | 0 | 0 | 0 | 0 | 0 | 0 | 0 | 0 | 100 | 100 | 0 | 0 |
| COc1ccc([C@@]23CCC(=NNc4ccc(F)cc4)C[C@@H]2N(C)CC3)cc1OC [Compound 361, (3aS,7aS)-3a-(3,4-dimethoxyphenyl)-6-(2-(4-fluorophenyl)-hydrazineylidene)-1-methyloctahydro-1H-indole] | 10 | 100 | 100 | 100 | 0 | 0 | 0 | 0 | 100 | 100 | 45 | 100 |
| COc1ccc([C@@]23CCC(=NNc4ccc(C(=O)O)cc4)C[C@@H]2N(C)CC3)cc1OC [Compound 363, 4-[2-[(3aS,7aS)-3a-(3,4-dimethoxyphenyl)-1-methyl-2,3,4,5,7,7a-hexahydroindol-6-ylidene]hydrazino]benzoic acid] | 0 | 0 | 0 | 2.1 | 0 | 0 | 0 | 0 | 27.1 | 46.7 | 0 | 8.1 |
| COc1ccc([C@@]23CCC(=NNc4ncccc4C)C[C@@H]2N(C)CC3)cc1OC [Compound 364, (3aS,7aS)-3a-(3,4-dimethoxyphenyl)-1-methyl-6-(2-(3-methylpyridin-2-yl)hydrazineylidene)octahydro-1H-indole] | 10 | 100 | 14.91 | 16.09 | 0 | 0 | 0 | 35.78 | 77.07 | 90.5 | 47 | 78.89 |
| COc1ccc([C@@]23CCC(=NNc4cnccn4)C[C@@H]2N(C)CC3)cc1OC [Compound 365, N-[[(3aS,7aS)-3a-(3,4-dimethoxyphenyl)-1-methyl-2,3,4,5,7,7a-hexahydroindol-6-ylidene]amino]pyrazin-2-amine] | 0 | 8.9 | 47.1 | 77.4 | 0 | 0 | 10.11 | 11.33 | 94.1 | 100 | 12.6 | 17.4 |
| COc1ccc([C@@]23CCC(=NNc4ccc5ccccc5n4)C[C@@H]2N(C)CC3)cc1OC [Compound 366, N-[[(3aS,7aS)-3a-(3,4-dimethoxyphenyl)-1-methyl-2,3,4,5,7,7a-hexahydroindol-6-ylidene]amino]quinolin-2-amine] | 0 | 8.9 | 47.1 | 77.4 | 0 | 0 | 10.11 | 11.33 | 94.1 | 100 | 12.6 | 17.4 |
| COc1ccc([C@@]23CCC(=NNCc4cccc(C)c4)C[C@@H]2N(C)CC3)cc1OC [Compound 367, N-[[(3aS,7aS)-3a-(3,4-dimethoxyphenyl)-1-methyl-2,3,4,5,7,7a-hexahydroindol-6-ylidene]amino]-1-(m-tolyl)methanamine] | 100 | 100 | 100 | 100 | 5 | 8.3 | 11.5 | 11.92 | 100 | 100 | 13.32 | 20 |
| COc1ccc([C@@]23CCC(=NNCc4ccccn4)C[C@@H]2N(C)CC3)cc1OC [Compound 369, (3aS,7aS)-3a-(3,4-dimethoxyphenyl)-1-methyl-6-(2-(pyridin-2-ylmethyl)hydrazineylidene)octahydro-1H-indole] | 30 | 100 | 100 | 100 | 0 | 0 | 0 | 0 | 100 | 100 | 45 | 50 |
